Measurements from US11339144B2 (Navitor Pharmaceuticals, Inc., priority 2017, dated 2022).
pIC50: −log10 of the molar value.

Legend:
[1] = biological target: HA-GST-Rheb (GTP-γ-S loaded) activating mTORC1 (Homo sapiens (Human), UniProt Q15382); assay: Rheb-dependent in vitro kinase assay (Rheb-IVK; LanthaScreen or Western readout); type: biochemical; settings: Rheb-dependent in vitro kinase assay; read-out: IVK IC50
Rheb = Rheb (Homo sapiens (Human), UniProt Q15382); assay: Affinity Selection Mass Spectrometry (ASMS); type: binding; settings: affinity (R3/R0) in Affinity Selection Mass Spectrometry assay
How it was run: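 Human Rheb (60 μM) with GDP (180 μM) and each compound at 2 μM, protein-plus versus protein-minus, incubated 30 min at room temperature, then washed by 10 kDa ultrafiltration. Retained ligand was released with MeCN and detected by UPLC-Q-TOF MS.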

Chain of Rheb (Q15382 1-169 limits assumed): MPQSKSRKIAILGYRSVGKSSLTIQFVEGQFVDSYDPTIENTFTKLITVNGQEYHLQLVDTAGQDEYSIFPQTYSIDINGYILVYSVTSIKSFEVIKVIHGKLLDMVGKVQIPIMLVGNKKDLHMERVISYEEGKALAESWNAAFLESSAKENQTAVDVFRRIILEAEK
Chain of HA-GST-Rheb (GTP-γ-S loaded) activating mTORC1 (Q15382 1-181): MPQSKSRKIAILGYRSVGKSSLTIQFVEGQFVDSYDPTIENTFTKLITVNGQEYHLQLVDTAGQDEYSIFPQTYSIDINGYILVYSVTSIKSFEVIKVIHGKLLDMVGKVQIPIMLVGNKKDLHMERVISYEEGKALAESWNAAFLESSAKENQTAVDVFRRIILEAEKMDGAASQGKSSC

| pIC50 [1] | Compound | ASMS (R3/R0) (Rheb) |
| --- | --- | --- |
| 4.00 to 5.00 | Clc1ccc(Sc2cccc3[nH]ccc23)cc1 [I-246, 4-(4-chlorophenylthio)-1H-indole] | C (an affinity (R3/R0)<20%) |
| < 4.00 | CN1CCC(NC(=O)c2cc3c(Sc4ccc(Cl)cc4Cl)cc(Cl)cc3[nH]2)CC1 [I-114] | B (an affinity (R3/R0) between 100% and 20%) |
| < 4.00 | OCc1nc2cc(OCc3ccccc3)c(Cl)cc2[nH]1 [I-492] | C (an affinity (R3/R0)<20%) |
| 4.00 to 5.00 | O=C(O)c1cc2c(Cl)cc(-c3ccccc3)cc2[nH]1 [I-48, 4-chloro-6-phenyl-1H-indole-2-carboxylic acid] | C (an affinity (R3/R0)<20%) |
| 4.00 to 5.00 | O=C(NCCN1CCCC1)c1cc2c(Sc3ccc(Cl)cc3)cc(Cl)cc2[nH]1 [I-148, 6-chloro-4-(4-chlorophenylthio)-N-(2-(pyrrolidin-1-yl)ethyl)-1H-indole-2-carboxamide] | B (an affinity (R3/R0) between 100% and 20%) |
| 4.00 to 5.00 | Clc1cc(Oc2ccccc2Cl)c2cc[nH]c2c1 [I-202, 6-chloro-4-(2-chlorophenoxy)-1H-indole] | B (an affinity (R3/R0) between 100% and 20%) |
| 4.00 to 5.00 | OCc1cc2c(OCc3cccc(Cl)c3)cc(Cl)cc2[nH]1 [I-176, (6-chloro-4-(3-chlorobenzyloxy)-1H-indol-2-yl)methanol] | B (an affinity (R3/R0) between 100% and 20%) |
| 4.00 to 5.00 | 1-(4-carboxybenzyl)-6-chloro-4-(3,4-dichlorophenoxy)-1H-indole-2-carboxylic acid [I-140] | B (an affinity (R3/R0) between 100% and 20%) |
| 4.00 to 5.00 | NCc1cc2c(Oc3ccccc3)cc(Cl)cc2[nH]1 [I-170, (6-chloro-4-phenoxy-1H-indol-2-yl)methanamine] | B (an affinity (R3/R0) between 100% and 20%) |
| > 5.00 | OCc1cc2c(Sc3cccc(OC(F)(F)F)c3)cc(Cl)cc2[nH]1 [I-122, (6-chloro-4-(3-(trifluoromethoxy)phenylthio)-1H-indol-2-yl)methanol] | B (an affinity (R3/R0) between 100% and 20%) |
| 3.52 to 4.00 | Clc1cc2nc(-c3ncco3)n(Cc3ccc(-c4nn[nH]n4)cc3)c2cc1Cl [I-489, 2-(1-(4-(2H-tetrazol-5-yl)benzyl)-5,6-dichloro-1H-benzo[d]imidazol-2-yl)oxazole] | C (an affinity (R3/R0)<20%) |
| < 4.00 | CN1CCC(CCNC(=O)c2cc3c(Br)cc(Sc4ccc(Cl)c(Cl)c4)cc3[nH]2)CC1 [I-97] | B (an affinity (R3/R0) between 100% and 20%) |
| 3.52 to 4.00 | O=C(O)c1cc2c(Oc3cccc4cnccc34)cc(Cl)cc2[nH]1 [I-41, 6-chloro-4-(isoquinolin-5-yloxy)-1H-indole-2-carboxylic acid] | C (an affinity (R3/R0)<20%) |
| > 5.00 | CN1CCN(c2ccc(NC(=O)c3cc4c(Sc5ccc(Cl)cc5Cl)cc(Cl)cc4[nH]3)cc2F)CC1 [I-113, 6-chloro-4-(2,4-dichlorophenylthio)-N-(3-fluoro-4-(4-methylpiperazin-1-yl)phenyl)-1H-indole-2-carboxamide] | C (an affinity (R3/R0)<20%) |
| < 4.00 | N#Cc1ccc(Cn2ccc3c(Sc4ccc(Cl)cc4Cl)cccc32)cc1 [I-160] | C (an affinity (R3/R0)<20%) |
| > 5.00 | CC(c1ccc(C(=O)N(C)C)cc1)n1c(C(=O)O)cc2c(Br)cc(Sc3ccc(Cl)c(Cl)c3)cc21 (stereo not shown) [I-5, 4-bromo-6-(3,4-dichlorophenylthio)-1-(1-(4-(dimethylcarbamoyl)phenyl)ethyl)-1H-indole-2-carboxylic acid] | B (an affinity (R3/R0) between 100% and 20%) |

| pIC50 [1] | Compound | ASMS (R3/R0) (Rheb) |
| --- | --- | --- |
| < 5.52 | CN1CCC(N(C)C(=O)c2ccc(Cn3c(C(=O)O)cc4c(Br)cc(Oc5ccccc5)cc43)cc2)C1 (stereo not shown) [I-46] | C (an affinity (R3/R0)<20%) |
| > 5.00 | Brc1cc(Oc2ccccc2)cc2c1ccn2Cc1ccc(-c2nn[nH]n2)cc1 [I-220, 1-(4-(2H-tetrazol-5-yl)benzyl)-4-bromo-6-phenoxy-1H-indole] | A (an affinity (R3/R0)>100%) |
| 4.00 to 5.00 | CN(C)CCNC(=O)c1cc2c(Sc3ccc(Cl)cc3Cl)cc(Cl)cc2[nH]1 [I-115, 6-chloro-4-(2,4-dichlorophenylthio)-N-(2-(dimethylamino)ethyl)-1H-indole-2-carboxamide] | B (an affinity (R3/R0) between 100% and 20%) |
| 4.00 to 5.00 | OCc1cc2c(Br)cc(Sc3ccccc3)cc2[nH]1 [I-237, (4-bromo-6-(phenylthio)-1H-indol-2-yl)methanol] | B (an affinity (R3/R0) between 100% and 20%) |
| < 5.52 | Cn1ccc2c(Oc3ccccc3F)cccc21 [I-267] | C (an affinity (R3/R0)<20%) |
| 4.00 to 5.00 | Cc1cc(Sc2ccc(Cl)cc2)c2cc(C(=O)O)[nH]c2c1Br [I-64, 7-bromo-4-(4-chlorophenylthio)-6-methyl-1H-indole-2-carboxylic acid] | B (an affinity (R3/R0) between 100% and 20%) |
| < 4.00 | Cn1ccc2c(Sc3ccc(Cl)cc3)cccc21 [I-222] | B (an affinity (R3/R0) between 100% and 20%) |
| > 5.00 | CN(C)C(=O)c1ccc(Cn2c(C(=O)O)cc3c(Br)cc(SCCc4ccc(Cl)c(Cl)c4)cc32)cc1 [I-25, 4-bromo-6-(3,4-dichlorophenethylthio)-1-(4-(dimethylcarbamoyl)benzyl)-1H-indole-2-carboxylic acid] | B (an affinity (R3/R0) between 100% and 20%) |
| 4.00 to 5.00 | OCc1cc2c(Sc3ccc(F)cc3)cc(Cl)cc2[nH]1 [I-153, (6-chloro-4-(4-fluorophenylthio)-1H-indol-2-yl)methanol] | B (an affinity (R3/R0) between 100% and 20%) |
| 4.00 to 5.00 | OCc1cc2c(Br)cc(OCCCc3ccccc3)cc2[nH]1 [I-235, (4-Bromo-6-(3-phenylpropoxy)-1H-indol-2-yl)methanol] | B (an affinity (R3/R0) between 100% and 20%) |
| < 4.00 | C=Cc1nc2c(OCC3CCCCC3)c(Cl)c(Cl)cc2[nH]1 [I-345] | B (an affinity (R3/R0) between 100% and 20%) |
| 4.00 to 5.00 | CN1CCN(c2ccc(NC(=O)c3cc4c(Br)cc(Sc5ccc(Cl)c(Cl)c5)cc4[nH]3)cc2)CC1 [I-96, 4-bromo-6-(3,4-dichlorophenylthio)-N-(4-(4-methylpiperazin-1-yl)phenyl)-1H-indole-2-carboxamide] | A (an affinity (R3/R0)>100%) |
| < 4.00 | Clc1cc2[nH]c(-c3ccncc3)nc2c(OCC2CCCCC2)c1Cl [I-348] | B (an affinity (R3/R0) between 100% and 20%) |
| 4.00 to 5.00 | OCc1nc2c(OCC3CCCC(O)C3)c(Cl)c(Cl)cc2[nH]1 (stereo not shown) [I-396, 3-((5,6-dichloro-2-(hydroxymethyl)-1H-benzo[d]imidazol-4-yloxy)methyl)cyclohexanol] | C (an affinity (R3/R0)<20%) |
| < 4.00 | NCCn1c(CO)cc2c(Oc3ccccc3)cc(Cl)cc21 [I-168] | C (an affinity (R3/R0)<20%) |
| < 4.00 | Cn1ccc2c(Nc3ccccc3)cccc21 [I-299] | C (an affinity (R3/R0)<20%) |
